Test results as given in patent US20100298141A1, “SUBSTITUTED PYRIDINE N-OXIDE HERBICIDES” (E. I. DU PONT DE NEMOURS AND COMPANY, priority 2007, published 2010).

Experiments:
barnyardgrass = experiment: Test A pre-/postemergence greenhouse test; type: in vivo, Echinochloa crus-galli; conditions: for Plant response rating, Barnyardgrass: 0 to 100 scale where 0 is no effect and 100 is complete control; for Barnyardgrass plant response rating: 0 to 100 scale
Summary of the method: (§1)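 Test compounds in non-phytotoxic solvent with surfactant were applied as a preemergence soil spray to seeded loam/sand pots and, concurrently, postemergence to plants at 2–10 cm, one- to two-leaf stage. About ten days in greenhouse, then injury visually rated against untreated controls.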

redroot pigweed = experiment: Test A pre-/postemergence greenhouse test; type: in vivo, Amaranthus retroflexus; conditions: for Plant response rating, Pigweed: 0 to 100 scale where 0 is no effect and 100 is complete control; for Pigweed plant response rating: 0 to 100 scale
Summary of the method: as §1

velvetleaf [1] = experiment: Test A pre-/postemergence greenhouse test; type: in vivo, Abutilon theophrasti; conditions: for Plant response rating, Velvetleaf: 0 to 100 scale where 0 is no effect and 100 is complete control; for Velvetleaf plant response rating: 0 to 100 scale
Summary of the method: as §1

downy brome = experiment: Test C pre-/postemergence test; type: in vivo, Bromus tectorum
Summary of the method: (§2)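 Compounds in a non-phytotoxic solvent with surfactant applied preemergence to seeded pots and, at the same time, postemergence to plants 2–18 cm tall (1- to 4-leaf stage). Paddy tests: pots flooded to 3 cm, compound applied into the water, depth held throughout.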

green foxtail = experiment: Test C pre-/postemergence test; type: in vivo, Setaria viridis
Summary of the method: as §2

wild oat = experiment: Test C pre-/postemergence test; type: in vivo, Avena fatua
Summary of the method: as §2

Surinam grass = experiment: Test C pre-/postemergence test; type: in vivo, Brachiaria decumbens
Summary of the method: as §2

cocklebur = experiment: Test C pre-/postemergence test; type: in vivo, Xanthium strumarium
Summary of the method: as §2

crabgrass = experiment: Test C pre-/postemergence test; type: in vivo, Digitaria sanguinalis
Summary of the method: as §2

giant foxtail = experiment: Test C pre-/postemergence test; type: in vivo, Setaria faberii
Summary of the method: as §2

johnsongrass = experiment: Test C pre-/postemergence test; type: in vivo, Sorghum halepense
Summary of the method: as §2

kochia = experiment: Test C pre-/postemergence test; type: in vivo, Kochia scoparia
Summary of the method: as §2

lambsquarters = experiment: Test C pre-/postemergence test; type: in vivo, Chenopodium album
Summary of the method: as §2

eastern black nightshade = experiment: Test C pre-/postemergence test; type: in vivo, Solanum ptycanthum; conditions: for Nightshade plant response rating: preemergence, scale 0 (no effect) to 100 (complete control)
Summary of the method: as §2

common ragweed = experiment: Test C pre-/postemergence test; type: in vivo, Ambrosia elation
Summary of the method: as §2

velvetleaf [2] = experiment: Test C pre-/postemergence test; type: in vivo, Abutilon theophrasti
Summary of the method: as §2

rice = experiment: Test C flooded paddy test; type: in vivo, Oryza sativa; conditions: Flood, scale 0 to 100, 0 no effect, 100 complete control, 13 to 15 days
Summary of the method: (§3)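 Test compounds are applied straight into paddy water held 3 cm above the soil surface, with that flood maintained for the whole test. After 13 to 15 days in the greenhouse, each species is scored visually relative to controls.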

duck salad = experiment: Test C flooded paddy test; type: in vivo, Heteranthera limosa; conditions: Flood, scale 0 to 100, 0 no effect, 100 complete control, 13 to 15 days
Summary of the method: as §3

[3] = Postemergence, 500 g ai/ha, 0 is no effect, 100 is complete control
[4] = Preemergence, 125 g ai/ha, 0 no effect, 100 complete control
[5] = 62 g ai/ha, Preemergence, scale 0 to 100
[6] = 125 g ai/ha, preemergence, scale 0 (no effect) to 100 (complete control)
[7] = Preemergence, 31 g ai/ha, scale 0 to 100 (0 no effect, 100 complete control)
[8] = preemergence, 250 g ai/ha, scale 0 (no effect) to 100 (complete control)

Cn1nc(C(F)(F)F)c(C(Cl)S(=O)(=O)c2cccc[n+]2[O-])c1OC(F)F (stereo not shown) [Compound 51]
98: Surinam Grass plant response rating (Surinam grass; [6]) | Johnsongrass plant response rating (johnsongrass; [6])
75: Plant response rating, Johnsongrass (johnsongrass; [7])
10: Oat, Wild plant response rating (wild oat; [6]) | Surinam Grass plant response rating (Surinam grass; [5]) | Plant response rating, Surinam Grass (Surinam grass; [7]) | Plant response rating, Foxtail, Giant (giant foxtail; [7])
60: Plant response rating, Pigweed (redroot pigweed; Postemergence, 125 g ai/ha) | Plant response rating, Velvetleaf (velvetleaf [1]; Postemergence, 125 g ai/ha) | Velvetleaf plant response rating (velvetleaf [1]; [4])
55: Plant response rating, Rice (rice; 250 g ai/ha)
50: Plant response rating, Barnyardgrass (barnyardgrass; Postemergence, 125 g ai/ha) | Oat, Wild plant response rating (wild oat; [8]) | Foxtail, Giant plant response rating (giant foxtail; [5]) | Velvetleaf plant response rating (velvetleaf [2]; [6])
100: Plant response rating, Barnyardgrass (barnyardgrass; Preemergence, 500 g ai/ha) | Pigweed plant response rating (redroot pigweed; [4]) | Plant response rating, Pigweed (redroot pigweed; Preemergence, 500 g ai/ha) | Foxtail, Green plant response rating (green foxtail; [8]) | Surinam Grass plant response rating (Surinam grass; [8]) | Crabgrass, Large plant response rating (crabgrass; [5]) | Crabgrass, Large plant response rating (crabgrass; [6]) | Crabgrass, Large plant response rating (crabgrass; [8]) | Foxtail, Giant plant response rating (giant foxtail; [8]) | Johnsongrass plant response rating (johnsongrass; [8]) | Kochia plant response rating (kochia; [5]) | Kochia plant response rating (kochia; [6]) | Kochia plant response rating (kochia; [8]) | Lambsquarters plant response rating (lambsquarters; [5]) | Lambsquarters plant response rating (lambsquarters; [6]) | Plant response rating, Lambsquarters (lambsquarters; [7]) | Lambsquarters plant response rating (lambsquarters; [8]) | Nightshade plant response rating (eastern black nightshade; 250 g ai/ha)
80: Barnyardgrass plant response rating (barnyardgrass; [3]) | Velvetleaf plant response rating (velvetleaf [2]; [8]) | Plant response rating, Ducksalad (duck salad; 250 g ai/ha)
70: Pigweed plant response rating (redroot pigweed; [3]) | Velvetleaf plant response rating (velvetleaf [1]; [3]) | Plant response rating, Velvetleaf (velvetleaf [1]; Preemergence, 500 g ai/ha)
85: Foxtail, Green plant response rating (green foxtail; [5]) | Foxtail, Green plant response rating (green foxtail; [6]) | Nightshade plant response rating (eastern black nightshade; 125 g ai/ha) | Ragweed plant response rating (common ragweed; [8])
25: Plant response rating, Rice (rice; 62 g ai/ha)
35: Plant response rating, Ducksalad (duck salad; 62 g ai/ha)
30: Ragweed plant response rating (common ragweed; [6])
95: Johnsongrass plant response rating (johnsongrass; [5])
65: Plant response rating, Foxtail, Green (green foxtail; [7]) | Plant response rating, Crabgrass, Large (crabgrass; [7]) | Plant response rating, Kochia (kochia; [7])
0: Bromegrass, Downy plant response rating (downy brome; [5]) | Bromegrass, Downy plant response rating (downy brome; [6]) | Plant response rating, Bromegrass, Downy (downy brome; [7]) | Bromegrass, Downy plant response rating (downy brome; [8]) | Oat, Wild plant response rating (wild oat; [5]) | Plant response rating, Oat, Wild (wild oat; [7]) | Cocklebur plant response rating (cocklebur; [5]) | Cocklebur plant response rating (cocklebur; [6]) | Plant response rating, Cocklebur (cocklebur; [7]) | Cocklebur plant response rating (cocklebur; [8]) | Plant response rating, Nightshade (eastern black nightshade; [7]) | Ragweed plant response rating (common ragweed; [5]) | Plant response rating, Ragweed (common ragweed; [7]) | Velvetleaf plant response rating (velvetleaf [2]; [5]) | Plant response rating, Velvetleaf (velvetleaf [2]; [7])
90: Barnyardgrass plant response rating (barnyardgrass; [4]) | Foxtail, Giant plant response rating (giant foxtail; [6])
